Measurements: ChEMBL document CHEMBL1201862, “PubChem BioAssay data set” (2004)
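How tested: cells in 96-well plates exposed to compound for 48 hours at five concentrations. GI50 is the concentration that inhibits growth by half.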 Calls of active or inactive are those of the source. Rule as the data show it: active = GI50 up to about 1.1 µM and inactive = higher. Non-standard residues stand in square brackets, D forms with d. Residues, ends and D or L forms follow the SMILES beside them. *: point of attachment. Bn2Val = CC(C)[C@@H](C(=O)*)N(Cc1ccccc1)Cc1ccccc1; NH(4-Cl-benzyl) = Clc1ccc(CN*)cc1; NMeV = CN[C@H](C(=O)O)C(C)C; dNMeA = CN[C@H](C)C(=O)O

How the values were obtained:
Experiment in all cases: NCI-60 cell line screen, 48 h
HOP-92 = test system: HOP-92
CCRF-CEM = test system: CCRF-CEM
COLO 205 = test system: COLO 205
NCI/ADR-RES = test system: NCI/ADR-RES
ACHN = test system: ACHN
OVCAR-4 = test system: OVCAR-4
UACC-62 = test system: UACC-62
NCI-H226 = test system: NCI-H226
SF-539 = test system: SF-539
NCI-H522 = test system: NCI-H522
SK-MEL-5 = test system: SK-MEL-5
NCI-H23 = test system: NCI-H23
OVCAR-3 = test system: OVCAR-3
SNB-75 = test system: SNB-75
SW-620 = test system: SW-620
U-251 = test system: U-251
786-0 = test system: 786-0
PC-3 = test system: PC-3
HOP-62 = test system: HOP-62
MCF7 = test system: MCF7

SMILES	GI50 (HOP-92)	GI50 (CCRF-CEM)	GI50 (COLO 205)	GI50 (NCI/ADR-RES)	GI50 (ACHN)	GI50 (OVCAR-4)	GI50 (UACC-62)	GI50 (NCI-H226)	GI50 (SF-539)	GI50 (NCI-H522)	GI50 (SK-MEL-5)	GI50 (NCI-H23)	GI50 (OVCAR-3)	GI50 (SNB-75)	GI50 (SW-620)	GI50 (U-251)	GI50 (786-0)	GI50 (PC-3)	GI50 (HOP-62)	GI50 (MCF7)
Cc1cc(Cl)cc2c1NC(=O)C2(O)CC(=O)c1ccco1 (centres undefined)	> 100 µM (inactive)	38.7 µM (inactive)	> 100 µM (inactive)	59.7 µM (inactive)	> 100 µM (inactive)	12.3 µM (inactive)	31 µM (inactive)	> 100 µM (inactive)	> 100 µM (inactive)	> 100 µM (inactive)	22.2 µM (inactive)	> 53.7 µM (inactive)	52.4 µM (inactive)	55.1 µM (inactive)	> 78.2 µM (inactive)	> 90.6 µM (inactive)	54.7 µM (inactive)	> 100 µM (inactive)	> 100 µM (inactive)	–
COc1cc2c3c(c1OC)C1(C=CC(=O)C=C1)CC3N(C(=O)OC(C)(C)C(Cl)(Cl)Cl)CC2 (centres undefined)	14.4 µM (inactive)	7.73 µM (inactive)	12.4 µM (inactive)	–	–	12.5 µM (inactive)	13.1 µM (inactive)	15.9 µM (inactive)	15.7 µM (inactive)	8.93 µM (inactive)	6.87 µM (inactive)	16.4 µM (inactive)	7.66 µM (inactive)	15.1 µM (inactive)	18.3 µM (inactive)	10.5 µM (inactive)	14.2 µM (inactive)	–	17.6 µM (inactive)	–
CCOC(=O)NC(Nc1cc(Cl)ccc1OC)(C(F)(F)F)C(F)(F)F	> 100 µM (inactive)	25.9 µM (inactive)	–	–	> 100 µM (inactive)	–	> 100 µM (inactive)	> 100 µM (inactive)	> 100 µM (inactive)	64 µM (inactive)	> 100 µM (inactive)	> 100 µM (inactive)	> 100 µM (inactive)	> 100 µM (inactive)	> 100 µM (inactive)	> 100 µM (inactive)	–	–	> 100 µM (inactive)	> 100 µM (inactive)
Cc1nn(C(=O)c2ccccc2O)c2c1C(c1ccco1)SC(=N)N2 (centres undefined)	4.59 µM (inactive)	2.95 µM (inactive)	5.83 µM (inactive)	3.22 µM (inactive)	3.42 µM (inactive)	3.04 µM (inactive)	2.13 µM (inactive)	3.43 µM (inactive)	4.28 µM (inactive)	–	–	> 10 µM (inactive)	3.32 µM (inactive)	1.45 µM (inactive)	5.24 µM (inactive)	5.28 µM (inactive)	7.01 µM (inactive)	3.73 µM (inactive)	2.58 µM (inactive)	–
CC(C)[C@H](NC(=O)[C@H](C(C)C)N(Cc1ccccc1)Cc1ccccc1)C(=O)N(C)[C@H](C(=O)N1CCC[C@H]1C(=O)N(C)[C@H](C)C(=O)NCc1ccc(Cl)cc1)C(C)C (Bn2Val-V[NMeV]P[dNMeA]-{NH(4-Cl-benzyl)})	2.84 µM (inactive)	2.42 µM (inactive)	2.09 µM (inactive)	3.32 µM (inactive)	2.98 µM (inactive)	3.96 µM (inactive)	3.32 µM (inactive)	3.72 µM (inactive)	3.88 µM (inactive)	2.06 µM (inactive)	3.89 µM (inactive)	3.37 µM (inactive)	2.76 µM (inactive)	3.44 µM (inactive)	3.72 µM (inactive)	2.86 µM (inactive)	3.26 µM (inactive)	2.75 µM (inactive)	4.38 µM (inactive)	–
COC(=O)C(C(=O)C(N)=O)c1csc(-n2nc(-c3ccccc3)cc2-c2ccccc2)n1 (centres undefined)	> 67 µM (inactive)	25.1 µM (inactive)	26.8 µM (inactive)	–	> 31.6 µM (inactive)	> 31.6 µM (inactive)	> 31.6 µM (inactive)	20.9 µM (inactive)	> 31.6 µM (inactive)	27.6 µM (inactive)	28.7 µM (inactive)	> 100 µM (inactive)	43.2 µM (inactive)	> 31.6 µM (inactive)	4.4 µM (inactive)	24.5 µM (inactive)	> 31.6 µM (inactive)	–	> 10 µM (inactive)	–
COc1ccccc1NC(=O)C1=C(C)NC(C)=C(C(=O)Nc2ccccc2OC)C1c1ccccc1OC	> 100 µM (inactive)	> 100 µM (inactive)	36.9 µM (inactive)	–	74.5 µM (inactive)	69 µM (inactive)	> 100 µM (inactive)	> 100 µM (inactive)	> 100 µM (inactive)	> 100 µM (inactive)	> 100 µM (inactive)	> 100 µM (inactive)	80.4 µM (inactive)	19.3 µM (inactive)	> 100 µM (inactive)	> 100 µM (inactive)	> 100 µM (inactive)	–	> 100 µM (inactive)	–
Cc1cc(-c2c(Br)cc(C(=O)O)n2C)on1	> 100 µM (inactive)	> 100 µM (inactive)	> 100 µM (inactive)	> 100 µM (inactive)	> 100 µM (inactive)	> 100 µM (inactive)	> 100 µM (inactive)	> 100 µM (inactive)	> 100 µM (inactive)	> 100 µM (inactive)	> 100 µM (inactive)	> 100 µM (inactive)	> 100 µM (inactive)	> 100 µM (inactive)	> 100 µM (inactive)	> 100 µM (inactive)	> 100 µM (inactive)	> 100 µM (inactive)	> 100 µM (inactive)	–
CN(C)C[C@H]1CC[C@@H](CN(C)C)C1=O	8.47 µM (inactive)	–	3.67 µM (inactive)	–	8.32 µM (inactive)	9.23 µM (inactive)	9.08 µM (inactive)	13.1 µM (inactive)	10 µM (inactive)	0.453 µM (active)	11.6 µM (inactive)	9.4 µM (inactive)	9.06 µM (inactive)	14.5 µM (inactive)	2.11 µM (inactive)	28.7 µM (inactive)	5.68 µM (inactive)	8.63 µM (inactive)	> 50 µM (inactive)	1.18 µM (inactive)
CC(=O)C(CN(Cc1ccccc1)Cc1ccccc1)C(c1ccccc1)c1c(O)c2ccccc2oc1=O (centres undefined)	18.9 µM (inactive)	> 100 µM (inactive)	–	–	> 100 µM (inactive)	> 100 µM (inactive)	> 100 µM (inactive)	> 100 µM (inactive)	> 100 µM (inactive)	> 100 µM (inactive)	> 100 µM (inactive)	> 100 µM (inactive)	> 100 µM (inactive)	> 100 µM (inactive)	71.4 µM (inactive)	> 100 µM (inactive)	> 100 µM (inactive)	–	> 100 µM (inactive)	–
Cc1cc(C)[n+](CCOc2ccc(/C(=C(/Cl)c3ccccc3)c3ccccc3)cc2)c(C)c1.[O-][Cl+3]([O-])([O-])[O-]	0.989 µM (active)	0.521 µM (active)	0.292 µM (active)	–	10 µM (inactive)	0.944 µM (active)	0.741 µM (active)	1.32 µM (inactive)	1.8 µM (inactive)	0.39 µM (active)	0.455 µM (active)	0.869 µM (active)	0.659 µM (active)	0.697 µM (active)	0.891 µM (active)	0.685 µM (active)	2.45 µM (inactive)	–	2.37 µM (inactive)	–
COc1ccc2ccccc2c1C1=NC(C)(C)CO1	98.9 µM (inactive)	> 100 µM (inactive)	> 100 µM (inactive)	–	> 100 µM (inactive)	> 100 µM (inactive)	> 100 µM (inactive)	> 100 µM (inactive)	> 100 µM (inactive)	> 100 µM (inactive)	> 100 µM (inactive)	> 100 µM (inactive)	> 100 µM (inactive)	> 100 µM (inactive)	> 100 µM (inactive)	> 100 µM (inactive)	> 100 µM (inactive)	–	> 100 µM (inactive)	–
Cc1ccc(-c2nc3ccccc3c(=O)n2NC2OC(CO)C(O)C(O)C2O)cc1 (centres undefined)	> 100 µM (inactive)	> 100 µM (inactive)	> 100 µM (inactive)	–	> 100 µM (inactive)	> 100 µM (inactive)	> 100 µM (inactive)	> 100 µM (inactive)	> 100 µM (inactive)	> 100 µM (inactive)	> 100 µM (inactive)	> 100 µM (inactive)	> 100 µM (inactive)	> 100 µM (inactive)	> 100 µM (inactive)	> 100 µM (inactive)	> 100 µM (inactive)	–	> 100 µM (inactive)	–
CCOC(=O)c1ncn2c1[nH]c(=S)c1ccccc12	> 100 µM (inactive)	50.2 µM (inactive)	49.8 µM (inactive)	–	> 100 µM (inactive)	> 100 µM (inactive)	> 100 µM (inactive)	> 100 µM (inactive)	> 100 µM (inactive)	73.6 µM (inactive)	> 100 µM (inactive)	> 100 µM (inactive)	> 100 µM (inactive)	> 100 µM (inactive)	22.9 µM (inactive)	46.9 µM (inactive)	> 100 µM (inactive)	–	> 100 µM (inactive)	–
O=C(NC1CCN(Cc2ccccc2)CC1)c1ccccc1I	28.7 µM (inactive)	24.3 µM (inactive)	18.9 µM (inactive)	25.7 µM (inactive)	49.3 µM (inactive)	86.3 µM (inactive)	18.5 µM (inactive)	25.8 µM (inactive)	23.2 µM (inactive)	14.4 µM (inactive)	16.9 µM (inactive)	26.2 µM (inactive)	43.9 µM (inactive)	–	19.7 µM (inactive)	23.2 µM (inactive)	26.1 µM (inactive)	23.6 µM (inactive)	19.8 µM (inactive)	–
